Measured values: US11197862B2, “Methods of preventing toxicity of platinum drugs” (XOMICS BIOPHARMA, INC., priority 2015, dated 2021)

How the values were obtained:
[1] = target: T1, OCT2 (Homo sapiens, UniProt O15244); assay: Inhibition of OCT2-mediated oxaliplatin uptake in transfected MDCK-II cells (protein-free HBSS)
T1 sequence (O15244 1-555): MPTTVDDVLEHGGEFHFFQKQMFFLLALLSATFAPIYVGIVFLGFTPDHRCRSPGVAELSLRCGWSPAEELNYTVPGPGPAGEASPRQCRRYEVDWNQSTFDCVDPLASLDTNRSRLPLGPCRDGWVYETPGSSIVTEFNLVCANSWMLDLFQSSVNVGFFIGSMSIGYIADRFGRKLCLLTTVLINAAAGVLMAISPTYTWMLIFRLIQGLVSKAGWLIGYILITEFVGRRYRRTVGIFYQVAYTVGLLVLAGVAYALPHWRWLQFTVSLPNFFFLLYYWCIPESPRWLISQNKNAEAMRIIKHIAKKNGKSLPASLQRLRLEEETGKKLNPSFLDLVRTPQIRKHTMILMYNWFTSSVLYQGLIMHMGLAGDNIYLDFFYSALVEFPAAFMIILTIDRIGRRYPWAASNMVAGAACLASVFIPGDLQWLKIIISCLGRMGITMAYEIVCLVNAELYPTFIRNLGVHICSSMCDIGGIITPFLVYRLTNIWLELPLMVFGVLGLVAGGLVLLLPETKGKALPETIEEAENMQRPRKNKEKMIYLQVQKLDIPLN
From the text: Fully confluent MDCK cell monolayers were transfected with either cDNA plasmids encoding the human transporter to be tested or a GFP control. […] The cells were then washed with ice-cold PBS and lysed with 50:50 acetonitrile:H2O. Intracellular content of the substrate was quantified by LC/MS/MS or a MicroBeta radiometric plate reader.

[2] = test system: Balb/c mice exposed to acute treatment with Oxaliplatin; assay: Dynamic test (mechanical pain threshold) after a single oxaliplatin administration; assay type: in vivo, mouse; conditions: 24 hours after single OXA 3.5 mg/kg iv; DTG 4 mg/kg ip 1 hour before; CPC 4 mg/kg iv co-administered; listed as CPC
Protocol: OXA vehicle, OXA, CPC, DTG, DTG+OXA and CPC+OXA were administered once time. In the group co-administered with OXA and DTG. DTG was injected intraperitoneally 1 hour before the administration of OXA. In the group co-administered with OXA and CPC, CPC was co-administered with OXA intravenously. Mechanical allodynia and cold sensory threshold (dynamic test and cold plate test) were performed 24 and 48 hours after the treatment, respectively, using the methods described in EXAMPLE 15 Plasma Sample Collection

[3] = target: T1, OCT2

NC(=O)OCC(O)COc1ccc(Cl)cc1 (stereo not drawn) [Chlorphenesin Carbamate]
fold less potent as inhibitor of OCT2-mediated metformin and oxaliplatin uptake than of ASP+ uptake ([1]; comparison of Table 1 potencies): more than 100 fold
inhibition at 30 min, 5 μM ([1]; human): 28%
inhibition at 30 min, 50 μM ([1]; human): 36%
potency estimated from few doses at 30 min ([1]; human, IC50 (μM) (substrate Oxaliplatin)): 90.4 µM
Mechanical Pain Threshold (MPT), mechanical hypersensitivity [2]: no such effect
IC50 (μM) (substrate Metformin) [3]: no
